Test results published in US8754234B2, “Chiral 2-(benzylsulfinyl)thiazole derivatives and 2-[(1H-pyrazol-4-ylmethyl)sulfinyl]thiazole derivatives, processes for their preparation and their use as herbicides and plant growth regulators” (Bayer Cropscience AG, priority 2007, dated 2014).

What was measured:
Format in all cases: in vivo
[1] = test system: Polygunum convolvulus; assay: Post-emergence herbicidal effect, Polygunum convolvulus; conditions: 80 g of active compound/ha, after about 3 weeks
Protocol: (§1) Seeds of monocotyledonous and dicotyledonous weed and crop plants are placed in sandy loam in wood fibre pots, covered with soil and cultivated in a greenhouse under good growth conditions. 2 to 3 weeks after sowing, the test plants are treated at the one-leaf stage. The compounds according to the invention, formulated in the form of wettable powders (WP), are then applied as aqueous suspension at a water application rate of 600 l/ha (converted) with the addition of 0.2% of wetting agent to the green parts of the plants. After the test plants have been kept in the greenhouse under optimum growth conditions for about 3 weeks, the activity of the preparations is rated visually in comparison to untreated controls (herbicidal activity in percent (%): 100% activity=the plants have died, 0% activity=like control plants).

[2] = test system: Stellaria media; assay: Post-emergence herbicidal effect, Stellaria media; conditions: after about 3 weeks
Protocol: as §1

[3] = test system: Avena fatua, Echinochloa crus galli, Lolium multiflorum, Setaria viridis and Alopecurus myosuroides; assay: Post-emergence herbicidal effect, harmful plants; conditions: post-emergence method, application rate of 0.32 kg and less of active substance per hectare
Protocol: as §1

[4] = test system: Setaria viridis (green foxtail); assay: Post-emergence herbicidal effect, green foxtail; conditions: after about 3 weeks
Protocol: as §1

[5] = test system: Lolium multiflorum (Italian ryegrass); assay: Post-emergence herbicidal effect, Italian ryegrass; conditions: after about 3 weeks
Protocol: as §1

[6] = test system: Avena fatua; assay: Post-emergence herbicidal effect, Avena fatua; conditions: after about 3 weeks
Protocol: as §1

[7] = test system: Avena fatua, Stellaria media, Echinochloa crus galli, Lolium multiflorum, Setaria viridis, Abutilon theophrasti, Amaranthus retroflexus, Viola tricolor …; assay: Pre-emergence herbicidal effect, harmful plants; conditions: pre-emergence method, application rate of 0.32 kg and less of active substance per hectare
Text: Seeds of monocotyledonous or dicotyledonous weed plants or crop plants are placed in sandy loam in wood-fiber pots and covered with soil. The compounds according to the invention, formulated in the form of wettable powders (WP), are then applied as aqueous suspension at a water application rate of 600 l/ha (converted) with the addition of 0.2% of wetting agent to the surface of the covering soil. After the treatment, the pots are placed in a greenhouse and kept under good growth conditions for the test plants. After about 3 weeks, the effect of the preparations is scored visually in comparison with untreated controls (herbicidal effect in percent (%): 100% activity=the plants have died, 0% activity=like control plants).

[8] = test system: Zea mays (corn); assay: Post-emergence crop plant compatibility, corn; conditions: after about 3 weeks
Protocol: as §1

Cn1nc(C(F)(F)F)c(C[S@@+]([O-])c2ncc(Br)s2)c1OCC(F)(F)F [Compound 3728]
0%: herbicidal activity in percent, STEME ([2]; 20 g of active compound/ha) | herbicidal activity in percent, LOLMU ([5]; 20 g of active compound/ha) | herbicidal activity in percent, LOLMU ([5]; 80 g of active compound/ha) | herbicidal activity in percent, AVEFA ([6]; 20 g of active compound/ha) | herbicidal activity in percent, ZEAMX ([8]; 20 g of active compound/ha) | herbicidal activity in percent, ZEAMX ([8]; 80 g of active compound/ha)
10%: herbicidal activity in percent, POLCO [1] | herbicidal activity in percent, STEME ([2]; 80 g of active compound/ha) | herbicidal activity in percent, SETVI ([4]; 20 g of active compound/ha) | herbicidal activity in percent, SETVI ([4]; 80 g of active compound/ha) | herbicidal activity in percent, AVEFA ([6]; 80 g of active compound/ha)
very good herbicidal activity: herbicidal activity against harmful plants [3] | herbicidal activity against harmful plants [7]
